Reference: patent US8592375B2, “Multifunctional context-activated protides and methods of use” (Los Angeles Biomedical Research Institute at Harbor-UCLA …, priority 2002, dated 2013)
Read-outs that look alike come from different tables or passages of the source. Where a SMILES comes first, the peptide text is derived from it.

Experiments:
[1] = test system: all organisms except S. aureus (Candida albicans, Salmonella typhimurium, Bacillus subtilis); assay: Modified radial diffusion assay, test pathogens other than S. aureus; type: cell-based; details: 5 ug per well, organisms that do not elaborate V8 protease
Source text: (§1) In order to assess the antimicrobial properties of PT-1, a panel of well-characterized test pathogens was used that included S. aureus strains ISP479C and ISP479R as described by Dhawan et al., Infect. Immun. 66:[…] (1998); Candida albicans strains 36082 (ATCC type strain 36082)and 36082R as described by Yeaman et al., Infect. Immun. 64:1379-1384 (1996); Salmonella typhimurium strains m5996s and 14028s as described by Fields et al., Science 243:1059-62 (1989); Yeaman et al., 38th Interscience Conference on Antimicrobial Agents and Chemotherapy (ICAAC), San Diego, Calif., Abstract No. F-170 (1999); and Bacillus subtilis strain ATCC 6633 as described by Yeaman et al., Infect. Immun. 60:1202-1209 (1992), each of which is incorporated herein by reference in its entirety.
(§2) In order to compare the antimicrobial activities of PT-1 with those of RP-1 against a panel of test pathogens, radial diffusion assay and a microtiter well assay were utilized.
(§3) Briefly, a modified radial diffusion assay was employed to compare the antimicrobial activities of PT-1 with RP-1 in a solid-phase matrix format. […] The assay plates were then incubated for 18 h at 37° C., after which zones of inhibition (in mm of diameter) were measured and recorded.

[2] = test system: S. aureus strains ISP479C and ISP479R; assay: Modified radial diffusion assay, S. aureus strains; type: cell-based; details: 5 ug per well, both S. aureus strains, regardless of intrinsic susceptibility or resistance
Source text: as §1, §2, §3

[3] = target: T1, staphylococcal V8 protease (Staphylococcus aureus, UniProt P0C1U8); assay: Cleavage (activation) of PT-1 by purified V8 protease in vitro, followed by analytical RP-HPLC and AU-PAGE; type: biochemical, S. aureus; details: in a time frame of minutes, fragments consistent with RP-1 and IL-8-like domains
T1 construct: purchased Sigma Chemical Co
T1 sequence (P0C1U8 69-336): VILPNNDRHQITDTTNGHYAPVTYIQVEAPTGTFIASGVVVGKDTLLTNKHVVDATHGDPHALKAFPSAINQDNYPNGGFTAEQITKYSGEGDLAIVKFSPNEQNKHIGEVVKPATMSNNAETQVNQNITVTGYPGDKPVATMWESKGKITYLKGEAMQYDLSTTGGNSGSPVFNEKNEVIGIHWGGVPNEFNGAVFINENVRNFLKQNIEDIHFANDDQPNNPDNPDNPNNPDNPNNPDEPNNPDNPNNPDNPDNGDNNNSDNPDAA

[4] = test system: S. aureus strains ISP479C and ISP479R; type: cell-based
Source text: as §1
A microtiter well assay was also performed as a complement to the radial diffusion assay described above. In this assay, PT-1, RP-1, or V8 protease (Sigma Chemical Co.) were serially diluted from 100 ug (range, 100-0.20 ug/ml) and individually assessed for antimicrobial activity against S. aureus strains ISP479C and ISP479R as described above. In addition, this assay allowed for the evaluation of antimicrobial activities of combinations of PT-1 and V8, in conditions of constant or dynamic dilution of one or both agents. This latter approach enabled the determination of static as well as dynamic fractional inhibitory concentrations (FICs) of PT-1 in the presence and absence of purified V8 protease.

For `CC[C@H](C)[C@H](NC(=O)[C@H](CS)NC(=O)[C@H](CCC(N)=O)NC(=O)[C@H](CS)NC(=O)[C@H](CCCNC(=N)N)NC(=O)[C@H](CC(C)C)NC(=O)[C@H](CCC(=O)O)NC(=O)[C@H](CCCCN)NC(=O)[C@H](C)N)C(=O)N[C@@H](CCCCN)C(=O)N[C@H](C(=O)N[C@@H](Cc1ccc(O)cc1)C(=O)N[C@@H](CO)C(=O)N[C@@H](CCCCN)C(=O)N[C@@H](CCC(=O)O)C(=O)N[C@@H](C)C(=O)N[C@@H](CC(C)C)C(=O)N[C@@H](Cc1ccc(O)cc1)C(=O)N[C@@H](CCCCN)C(=O)N[C@@H](CCCCN)C(=O)N[C@@H](Cc1ccccc1)C(=O)N[C@@H](CCCCN)C(=O)N[C@@H](CCCCN)C(=O)N[C@@H](CCCCN)C(=O)N[C@@H](CC(C)C)C(=O)N[C@@H](CC(C)C)C(=O)N[C@@H](CCCCN)C(=O)N[C@@H](CO)C(=O)N[C@@H](CC(C)C)C(=O)N[C@@H](CCCCN)C(=O)N[C@@H](CCCNC(=N)N)C(=O)N[C@@H](CC(C)C)C(=O)NCC(=O)O)[C@@H](C)O` [PT-1] (H-AKELRCQCIKTYSKEALYKKFKKKLLKSLKRLG-OH; N-terminus and C-terminus assumed), the “antimicrobial activity compared with RP-1 (zones of inhibition)” value [1] was “substantially less antimicrobial activity than RP-1”, the “antimicrobial activity (zones of inhibition)” value [2] was “activation and enhanced antimicrobial activity” and the “cleavage (activation) on exposure to purified V8 protease” value [3] was “cleaved (activated) into two separate fragments”. The “FIC (fractional inhibitory concentration)” value ([4]; PT-1 with V8 protease, considered synergistic) was under 0.5, the MIC ([4]; co-incubated with V8 protease) was 3.1 µg/mL and the “increased activity in the presence of purified V8 protease compared to its absence” value ([4]; with vs without purified V8 protease) was at least 2 fold. It also gave an MIC ([4]; without V8 protease) of 12.5 µg/mL.
